Source: US8263056B2, “Dyed-hair-binding peptides and peptide-based hair reagents for personal care” (E I du Pont de Nemours and Company, priority 2007, dated 2012)

Details: read-out: EC50 (concentration at which half the maximum binding was observed by measuring A405 nm), binding to dyed hair, ELISA-type assay
Text: Each selection round was monitored for enrichment of phage displaying dyed-hair-binding peptides using ELISA-like assays in the deep well plates performed using an anti-M13 phage antibody conjugated to horseradish-peroxidase, followed by the addition of a chromogenic agent ABTS (2,2′-azino-bis(3-ethylbenzthiazoline-6-sulphonic acid)). The plates were read at 405 nm.
Relative binding strengths of the phage can also be determined by testing serial dilutions of the phage for binding to dyed hair in an ELISA. For example, serial dilutions of the display-selected clones were exposed to dyed hair in an ELISA. […] Primers against the phage vector sequence (available from New England BIOLABS®) that flank the insertion site were used to determine the DNA sequence encoding the peptide for the phage in each group. […] The DNA sequences encoding dyed-hair-binding peptides isolated were determined. Peptides Dye-1 through Dye-16 were those sequenced after round 4 of selection. Peptides Dye 17 through Dye-28 were those isolated and sequenced after a fifth round of selection.
The ELISA-type assay described in Example 1 was used to evaluate the affinity of dyed-hair-binding peptides for dyed hair. All of the synthesize peptides in Table 2 were evaluated for their ability to bind to dyed hair versus two negative controls (a non-selected peptide and a blank (no peptide)).
The EC50 values (the concentration at which half the maximum binding was observed by measuring A405 nm) were deduced and given in Table 3.

Question: For “LLSDFHYGDMWDASR-GSSGK (biotin) [Aff15016]”, which EC50 is on record?
Answer: ~1 µM

Question: For QYYQDYQYYHSSR-GSSK (biotin) [Aff15029], which EC50 is on record?
Answer: ~1 µM

Question: Which EC50 does the source give for “SSNDSNVSWFHYYASGLTSSR-GSSG-SRKSSQKNPHHPKPPKKPTAR-GSSGK (biotin) [Aff15025]” here?
Answer: ~0.025 µM

Question: Which EC50 does the source give for “SSNDSNVSWFHYYASGLTSSR-GSSGK-(biotin) [Aff15013]” here?
Answer: ~1 µM

Question: With NYNYNYNYQYSSR-GSSGK (biotin) [Aff15011] as the substance, how does the EC50 read?
Answer: > 10 µM

Question: Which EC50 does the source give for YHYDYDHYYESSR-GSSGK (biotin) [Aff15030] here?
Answer: ~1 µM

Question: With YYYDYYQQDYSSR-GSSGK (biotin) [Aff15027] as the substance, how does the EC50 read?
Answer: ~1 µM
